Laboratory results: patent publication US20250169500A1, “METHOD AND APPARATUS FOR CONTROLLING WEEDS BY POST-HARVEST TREATMENT OF WEED SEEDS” (BAYER CROPSCIENCE LP, priority 2022, published 2025)

Test system: Palmer Amaranth
Test: Field treatment of crop residue material with diluted indaziflam suspension concentrate at soybean harvest; Palmer Amaranth infestation in the next growing season
Type: in vivo
Conditions: about 1 g of indaziflam per hectare of spread crop residue material, applied at the expelling end of the seed pulverizer during harvest; assessed in the next growing season
Experimental: A crop of soybeans is grown infested with Palmer Amaranth. The soybean crop is grown to harvest and the Palmer amaranth is in the seed stage, just before seed drop. A combine harvester equipped with a follow-along seed pulverizer as described in WO 2009/100500 A is used to harvest the crop. The seed pulverizer is fitted with a liquid applicator at the expelling end to treat crop residue material expelled from the pulverizer with a diluted indaziflam suspension concentrate—before the expelled material touches the ground—such that the combine harvester-pulverizer deposits treated crop residue material such that the land so harvested is treated with about 1 g of indaziflam per hectare of spread crop residue material, without treating the land directly.
In the next growing season, another soybean crop has less than 10% of the volume of Palmer Amaranth compared to the present soybean harvest.

Cc1ccc2c(c1)[C@H](Nc1nc(N)nc(C(C)F)n1)[C@@H](C)C2 (mixture of isomers) [indaziflam, 2-N-[(1R,2S)-2,3-dihydro-2,6-dimethyl-1H-inden-1-yl]-6-[(1RS)-1-fluoroethyl]-1,3,5-triazine-2,4-diamine]
volume of Palmer Amaranth in next season's soybean crop compared to the present soybean harvest: less than 10%
